Test results published in paper PMC5321753, “Enhanced expression of ADCY1 underlies aberrant neuronal signalling and behaviour in a syndromic autism model” (Nature Communications, 2017).

Columns and labels:
neuropathic pain = test system: neuropathic pain; design: method as in PMID 21228397; details: systemic administration; cited from earlier work
[1] = Mouse liver microsome stability assay; type: in vitro ADME; details: incubation with liver microsomes, 0-60 min
Procedure: (§1) Following IP injection of NB001 (20 mg kg^−1), mice were killed at various time points, and 0.5–0.8 ml of blood was drawn from a cardiac puncture into a 1 ml syringe, which was pre-treated with NaHeparin. The blood was collected into 1.5 ml microfuge tubes coated with NaHeparin and put on ice immediately. Samples were centrifuged at 15,000 r.p.m. for 15 min. Blood plasma was collected from the upper layer, leaving the blood cells in the tube. The plasma was frozen at −80 °C for later analysis. Brains were taken out and weighed immediately. Brains were frozen at −80 °C for later preparation and analysis. The samples were subjected to LC/MS/MS with Turbo-Ionspray Interface used in the positive ion-mode (Pharmacokinetics Core, University of Michigan). Mouse liver microsome stability assay was performed by the Pharmacokinetics Core at University of Michigan.

Akt = assay: Immunoblot of phosphorylated and total Akt in hippocampus after i.p. injection; type: in vivo, mouse; details: acute NB001 1 mg kg^-1 IP, 1 h after injection
Procedure: Hippocampal tissues were collected from 3-month-(+/−10 days) old mice. […] The primers used for Adcy1 were […] (forward) and […] (reverse). The protein levels in hippocampal tissues collected from mice were determined by western blot using anti-ADCY1 (Sigma, Cat # SAB4500146-100UG, 1:1,000 dilution), anti-p-ERK1/2 (Cell Signaling, Cat # 9101L, 1:1,000 dilution), anti-pAkt (Cell Signaling, Cat # 9271, 1:1,000 dilution), anti-pS6K1 (Cell Signaling, Cat # 9204L for the detection of phosphorylation at Thr421/Ser424, Cat # 9234S for the detection of phosphorylation at Thr389, 1:1,000 dilution), anti-ERK1/2 (Cell Signaling, Cat # 9102L, 1:1,000 dilution), anti-Akt (Cell Signaling, Cat # 9272S, 1:1,000 dilution), anti-S6K1 (Cell Signaling, Cat # 9202L, 1:1,000 dilution) and anti-β-actin antibody (Sigma, Cat # A5441; 1:5,000 dilution). Following incubations with infrared fluorescence (IRDye)-conjugated secondary antibodies (1:5,000, LI-COR Biosciences, Cat # 926–32211 and 926–68070), signals were detected using the Odyssey system (LI-COR Biosciences). The un-cropped western blots are shown in Supplementary Fig. 10.
(§2) NB001 was dissolved in water to give a 25 mM stock solution. The stock was diluted in saline and IP injected into mice at 1 mg kg^−1 body weight. In all cases, the drug was administered 1 h before testing. Control mice were treated similarly but injected with saline.

mice = assay: Clinical panel blood test after 14 days of NB001; type: in vivo, mouse
Procedure: Mice at 3 months (+/−10 days) of age were IP injected with NB001 twice daily at 50 mg kg^−1 for 2 weeks. Clinical observations were performed twice daily and body weights were measured on various days during the dosing regimen. At the end of the dosing period, mice were killed and blood was collected for clinical pathology (Diagnostic Center for Population and Animal Health, Michigan State University). The liver and kidney were collected and fixed in 10% buffered formalin (INVIVO facility at Michigan State University).

[2] = NB001 pharmacokinetic study, plasma and brain levels by LC/MS/MS; type: in vivo, mouse
Procedure: as §1

WT and Fmr1 KO mice = assay: Marble burying test; type: in vivo, mouse; details: NB001 1 mg kg^-1 IP, 1 h before testing
Procedure: Repetitive behaviour was determined by the marble burying test as described. 3-month-(+/−10 days) old mouse was placed in a regular mouse cage filled with 7.6 cm-deep bedding for 1 h before the test. The mouse was then briefly removed from the testing box and 15 marbles were evenly arranged in a 5 × 3 pattern on the surface of the bedding. The mouse was reintroduced into the testing box and was allowed to bury marbles for 10 min. At the end of the testing period, the number of marbles that were fully buried, partially buried and left on the surface was counted.
as §2

[3] = blood, NB001 50 mg per kg twice per day for 14 days
[4] = blood, NB001 50 mg per kg twice per day for 14 days, mean ± SEM
[5] = IP injection, 20 mg kg^-1, mice

For Nc1ncnc2c1ncn2CCNCCCCCO [NB001, 5-{[2-(6-amino-9H-purin-9-yl)ethyl]amino}-1-pentanol], the neuropathic pain (neuropathic pain) is listed as “attenuates”, the “stability in mouse liver microsome assay” value [1] is listed as “stable and resistant to degradation” and the “level of pAkt” value (Akt) is listed as “not affected”. For the same molecule, the “concentrations of various electrolytes and levels of the main toxicity-related proteins (such as aminotransferases)” value (mice; NB001 50 mg kg^-1 twice a day for 14 days) was “no effect”, the ALT (mice; alanine aminotransferase, blood, NB001 50 mg per kg twice per day for 14 days, mean ± SEM) was 18.50 ±0.96 U/L and the ALP (mice; alkaline phosphatase, blood, NB001 50 mg per kg twice per day for 14 days, mean ± SEM) was 62.75 ±4.48 U/L. For the same molecule, the AST (mice; aspartate aminotransferase, blood, NB001 50 mg per kg twice per day for 14 days, mean ± SEM) was 32.50 ±1.55 U/L, the “Hemolysis Chem” value (mice; [3]) was “Normal” and the “Icterus Chem” value (mice; [3]) was “Normal”. The “Lipemia Chem” value (mice; [3]) was “Normal”, the Albumin (mice; [4]) was 2.65 ± 0.13 g/dL and the Amylase (mice; [4]) was 586.50 ±29.02 U/L. For the same molecule, the “Anion Gap” value (mice; [4]) was 29.50 ± 2.36 mmol/L, the Calcium (mice; [4]) was 8.83 ± 0.20 mg/dL and the Chol (mice; [4]) was 100.00 ± 5.96 mg/dL. For the same molecule, the Glucose (mice; [4]) was 216.50 ± 8.50 mg/dL, the Magnesium (mice; [4]) was 2.60 ± 0.11 mg/dL and the “Na/K Ratio” value (mice; [4]) was 32.00 ±1.47. The Osmolarity (mice; [4]) was 321.00 ±4.00 mOs/L, the Phosphorus (mice; [4]) was 6.50 ± 0.24 mg/dL and the Potassium (mice; [4]) was 4.73 ± 0.22 mmol/L. For the same molecule, the Sodium (mice; [4]) was 150.50 ± 1.50 mmol/L, the “Total CO2” value (mice; [4]) was 13.50 ± 1.04 mmol/L and the “Urea Nitrogen” value (mice; [4]) was 24.50 ± 0.87 mg/dL. The absorption to plasma [2, 5] was “absorbed to the blood stream”, the distribution to brain [2, 5] was “distributed to the brain” and the blood-brain barrier crossing ([2]; conclusion from plasma/brain levels and ref 40) was “can cross the blood–brain barrier”. For the same molecule, the “marble burying behaviour, NB001-injected Fmr1 KO versus WT mice” value (WT and Fmr1 KO mice) was “comparable”.
